Test results from paper PMC5837865 (Clinical cancer research : an official journal of the …, 2017).
≈ marks a conversion by molar mass, not a printed value. Read-outs that look alike come from different tables or passages of the source.

Columns and labels:
CYP2A6 = CYP2A6 (Homo sapiens, UniProt P11509); test: Cytochrome P450 inhibition; format: biochemical; conditions: read-out: IC50 CYP2A6
PC-3-luc tumors = test: Glucose and glutamine levels in tumors by LC-MS/MS; format: in vivo, athymic male BALB/c mice; conditions: 40 mg/kg Etn-treated PC-3-luc tumors
PC-3 cells [1] = test: Oxygen consumption rate; format: cell-based, human; conditions: PC-3, 2 mg/ml, 48h, 1 million cells/ml
RWPE-1 cells = test: MTT cell survival, near-normal prostate cells; format: cell-based; conditions: 0.5 mg/ml, 48h, pH 7.4, RWPE-1
CYP2B6 = CYP2B6 (Homo sapiens, UniProt P20813); test: Cytochrome P450 inhibition; format: biochemical; conditions: read-out: IC50 CYP2B6
HCT116 xenograft = test: HCT116 colon cancer xenograft tumor growth; format: in vivo, mice; conditions: 2 weeks
CYP2E1 = CYP2E1 (Homo sapiens, UniProt P05181); test: Cytochrome P450 inhibition; format: biochemical; conditions: read-out: IC50 CYP2E1
DU145 xenografts = test: DU145 prostate cancer xenograft tumor growth; format: in vivo, athymic male BALB/c mice
[2] = Stability in simulated gastric fluid; format: in vitro ADME; conditions: 10 µM, SGF pH 1.2, over 1h, LC-MS/MS
CYP2C9 = CYP2C9 (Homo sapiens, UniProt P11712); test: Cytochrome P450 inhibition; format: biochemical; conditions: read-out: IC50 CYP2C9
HIF1-α = HIF1-α protein expression in tumors; format: in vivo, athymic male BALB/c mice; conditions: PC-3-luc xenografts, Etn-treated
[3] = Stability in simulated intestinal fluid; format: in vitro ADME; conditions: 10 µM
Ki67 = Ki67 immunohistochemistry of tumor sections; format: in vivo, athymic male BALB/c mice; conditions: PC-3-luc xenografts, 40 mg/kg; control tumors ~62%
PC-3 cells [4] = test: Intracellular glucose and glutamine levels in cultured cells; format: cell-based, human; conditions: PC-3, 2 mg/ml, 48h
PC-3 cells [5] = test: Clonogenic; format: cell-based, human; conditions: 2 mg/ml, PC-3, pH 7.4
CYP3A4 = CYP3A4 (Homo sapiens, UniProt P08684); test: Cytochrome P450 inhibition; format: biochemical; conditions: read-out: IC50 CYP3A4
p53 transcript = test: RT-PCR transcript levels; format: cell-based, human; conditions: PC-3, 2 mg/ml, 48h
CYP1A2 = CYP1A2 (Homo sapiens, UniProt P05177); test: Cytochrome P450 inhibition; format: biochemical
CFPAC = test: MTT cell proliferation assay; format: cell-based; conditions: CFPAC (pancreas)
CYP2D6 = CYP2D6 (Homo sapiens, UniProt P10635); test: Cytochrome P450 inhibition; format: biochemical; conditions: read-out: IC50 CYP2D6
PC-3 cells [6] = test: MTT cell proliferation assay; format: cell-based, human; conditions: pH 7.4
[7] = format: in vivo, BALB/c mice; conditions: for Cmax / time to reach peak plasma concentration: plasma, label = analyte measured
HIF1-α transcripts = test: RT-PCR transcript levels; format: cell-based, human; conditions: PC-3, 2 mg/ml, 48h
OVCAR-3 = test: MTT cell proliferation assay; format: cell-based; conditions: OVCAR-3 (ovary)
PC-3-luc xenografts = test: PC-3-luc prostate cancer xenograft tumor growth; format: in vivo, athymic male BALB/c mice
CK KD PC-3 cells = test: MTT cell survival in choline kinase knockdown cells; format: cell-based, human; conditions: 0.5 mg/ml, CK KD (siRNA) PC-3 cells, 48h
CYP2C8 = CYP2C8 (Homo sapiens, UniProt P10632); test: Cytochrome P450 inhibition; format: biochemical; conditions: read-out: IC50 CYP2C8
PC-3 cells [8] = test: Annexin-V flow cytometry; format: cell-based, human; conditions: control ~8%
CYP2C19 = CYP2C19 (Homo sapiens, UniProt P33261); test: Cytochrome P450 inhibition; format: biochemical; conditions: read-out: IC50 CYP2C19
[9] = test system: PC-3, DU145 and C42B cells; test: MTT cell survival, prostate cancer lines; format: cell-based, human; conditions: 0.5 mg/ml, 48h, pH 7.4; range over PC-3, DU145 and C42B
[10] = Etn absorption from formulations of different pH/acid; format: in vivo; conditions: pH 5/7.4; H3PO4/HCl/H2SO4
MDA-MB-468 = test: MTT cell proliferation assay; format: cell-based; conditions: MDA-MB-468 (breast)
Acute oral toxicity = format: in vivo, Sprague-Dawley (SD) rats
PC-3 cells [11] = test: Intracellular levels of PhosE and Etn by LC-MS/MS; format: cell-based, human; conditions: PC-3, 1 mg/ml treatment, 48h, pH 7.4
[12] = Blood to plasma concentration ratio; format: in vitro ADME; conditions: BALB/c mice blood
[13] = test system: cancer cells of varying tissue-origin; test: Proliferation and colony formation, cancer cells of varying tissue-origin; format: cell-based
[14] = format: in vivo, BALB/c mice
[15] = 40 mg/kg oral gavage, pH 5, 4 weeks
[16] = after 4 weeks of 40 mg/kg oral Etn

CYP2C19, sequence (P33261 whole entry): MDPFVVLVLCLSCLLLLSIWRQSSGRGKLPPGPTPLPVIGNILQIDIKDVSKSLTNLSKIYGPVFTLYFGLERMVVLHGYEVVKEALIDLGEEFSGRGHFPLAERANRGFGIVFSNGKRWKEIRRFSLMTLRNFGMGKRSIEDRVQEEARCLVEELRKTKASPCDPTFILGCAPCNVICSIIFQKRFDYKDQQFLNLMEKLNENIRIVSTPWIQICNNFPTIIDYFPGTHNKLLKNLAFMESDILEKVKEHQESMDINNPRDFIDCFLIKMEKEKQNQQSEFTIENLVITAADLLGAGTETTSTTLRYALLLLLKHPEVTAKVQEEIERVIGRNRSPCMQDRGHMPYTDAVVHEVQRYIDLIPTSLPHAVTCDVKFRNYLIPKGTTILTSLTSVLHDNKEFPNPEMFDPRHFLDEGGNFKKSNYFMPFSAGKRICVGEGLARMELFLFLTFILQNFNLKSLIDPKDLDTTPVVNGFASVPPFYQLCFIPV
CYP1A2, sequence (P05177 whole entry): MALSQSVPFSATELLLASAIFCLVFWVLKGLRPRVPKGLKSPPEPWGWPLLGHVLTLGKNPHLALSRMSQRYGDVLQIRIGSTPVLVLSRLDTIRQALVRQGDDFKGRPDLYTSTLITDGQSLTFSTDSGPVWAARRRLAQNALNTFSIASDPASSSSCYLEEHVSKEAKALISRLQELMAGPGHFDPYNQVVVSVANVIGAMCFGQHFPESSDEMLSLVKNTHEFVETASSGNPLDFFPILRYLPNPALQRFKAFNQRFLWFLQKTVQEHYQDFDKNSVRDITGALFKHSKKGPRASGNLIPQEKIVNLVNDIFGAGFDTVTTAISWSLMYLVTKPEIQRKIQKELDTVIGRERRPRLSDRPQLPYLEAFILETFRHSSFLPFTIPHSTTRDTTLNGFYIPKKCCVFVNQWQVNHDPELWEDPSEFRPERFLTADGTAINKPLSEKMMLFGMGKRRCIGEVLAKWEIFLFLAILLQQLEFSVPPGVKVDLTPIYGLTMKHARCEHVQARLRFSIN
CYP2C8, sequence (P10632 whole entry): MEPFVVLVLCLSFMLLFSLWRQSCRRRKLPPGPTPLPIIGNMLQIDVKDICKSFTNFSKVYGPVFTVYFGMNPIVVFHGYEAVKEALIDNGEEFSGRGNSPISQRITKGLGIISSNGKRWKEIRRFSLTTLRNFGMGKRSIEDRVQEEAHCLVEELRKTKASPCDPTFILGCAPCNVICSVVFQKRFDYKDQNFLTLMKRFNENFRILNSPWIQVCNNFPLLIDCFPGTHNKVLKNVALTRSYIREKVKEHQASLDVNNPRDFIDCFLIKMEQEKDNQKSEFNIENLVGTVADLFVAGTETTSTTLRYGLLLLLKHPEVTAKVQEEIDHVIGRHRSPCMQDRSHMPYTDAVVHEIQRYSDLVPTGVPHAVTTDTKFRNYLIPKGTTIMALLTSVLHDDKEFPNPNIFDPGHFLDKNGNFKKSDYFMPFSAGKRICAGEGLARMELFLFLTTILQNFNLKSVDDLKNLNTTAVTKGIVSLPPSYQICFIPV
CYP2B6, sequence (P20813 whole entry): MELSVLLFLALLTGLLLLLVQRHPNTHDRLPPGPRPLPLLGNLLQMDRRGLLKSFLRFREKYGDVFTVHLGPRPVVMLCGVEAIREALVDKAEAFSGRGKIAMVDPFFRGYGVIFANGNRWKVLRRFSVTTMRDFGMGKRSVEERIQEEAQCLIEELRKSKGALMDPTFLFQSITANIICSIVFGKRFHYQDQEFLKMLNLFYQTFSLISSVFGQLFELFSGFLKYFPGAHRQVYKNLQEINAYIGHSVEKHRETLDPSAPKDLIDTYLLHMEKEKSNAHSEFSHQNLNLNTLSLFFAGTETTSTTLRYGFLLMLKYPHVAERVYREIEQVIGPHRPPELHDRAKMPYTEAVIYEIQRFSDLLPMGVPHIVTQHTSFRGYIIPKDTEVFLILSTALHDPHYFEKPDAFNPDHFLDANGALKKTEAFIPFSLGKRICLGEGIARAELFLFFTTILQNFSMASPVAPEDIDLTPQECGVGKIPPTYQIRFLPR
CYP2A6, sequence (P11509 whole entry): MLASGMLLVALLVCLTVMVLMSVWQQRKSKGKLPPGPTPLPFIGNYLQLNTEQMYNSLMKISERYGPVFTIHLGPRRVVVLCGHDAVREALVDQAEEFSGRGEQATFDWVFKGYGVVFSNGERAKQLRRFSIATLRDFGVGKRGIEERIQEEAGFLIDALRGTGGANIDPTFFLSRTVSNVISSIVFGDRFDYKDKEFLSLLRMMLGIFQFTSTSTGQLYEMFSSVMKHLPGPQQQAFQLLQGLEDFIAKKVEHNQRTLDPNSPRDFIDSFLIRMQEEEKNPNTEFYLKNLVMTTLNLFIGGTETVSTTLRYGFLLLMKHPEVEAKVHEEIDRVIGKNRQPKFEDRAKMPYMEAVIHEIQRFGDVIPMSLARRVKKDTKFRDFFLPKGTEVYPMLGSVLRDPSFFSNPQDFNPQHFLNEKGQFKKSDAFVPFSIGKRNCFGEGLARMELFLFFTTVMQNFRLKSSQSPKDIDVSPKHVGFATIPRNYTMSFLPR
CYP3A4, sequence (P08684 whole entry): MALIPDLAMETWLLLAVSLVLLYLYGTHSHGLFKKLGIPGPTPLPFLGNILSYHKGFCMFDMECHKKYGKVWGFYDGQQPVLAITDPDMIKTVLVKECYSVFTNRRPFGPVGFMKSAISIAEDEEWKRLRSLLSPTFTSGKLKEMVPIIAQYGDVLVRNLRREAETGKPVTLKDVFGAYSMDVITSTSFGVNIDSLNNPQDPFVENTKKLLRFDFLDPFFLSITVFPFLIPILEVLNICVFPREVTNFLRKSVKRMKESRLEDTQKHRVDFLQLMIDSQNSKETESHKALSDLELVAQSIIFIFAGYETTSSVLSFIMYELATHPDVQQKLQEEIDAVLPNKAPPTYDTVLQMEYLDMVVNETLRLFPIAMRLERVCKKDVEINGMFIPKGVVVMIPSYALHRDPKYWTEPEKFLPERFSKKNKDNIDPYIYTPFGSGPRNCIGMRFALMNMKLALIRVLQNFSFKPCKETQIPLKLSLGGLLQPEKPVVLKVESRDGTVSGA
CYP2D6, sequence (P10635 whole entry): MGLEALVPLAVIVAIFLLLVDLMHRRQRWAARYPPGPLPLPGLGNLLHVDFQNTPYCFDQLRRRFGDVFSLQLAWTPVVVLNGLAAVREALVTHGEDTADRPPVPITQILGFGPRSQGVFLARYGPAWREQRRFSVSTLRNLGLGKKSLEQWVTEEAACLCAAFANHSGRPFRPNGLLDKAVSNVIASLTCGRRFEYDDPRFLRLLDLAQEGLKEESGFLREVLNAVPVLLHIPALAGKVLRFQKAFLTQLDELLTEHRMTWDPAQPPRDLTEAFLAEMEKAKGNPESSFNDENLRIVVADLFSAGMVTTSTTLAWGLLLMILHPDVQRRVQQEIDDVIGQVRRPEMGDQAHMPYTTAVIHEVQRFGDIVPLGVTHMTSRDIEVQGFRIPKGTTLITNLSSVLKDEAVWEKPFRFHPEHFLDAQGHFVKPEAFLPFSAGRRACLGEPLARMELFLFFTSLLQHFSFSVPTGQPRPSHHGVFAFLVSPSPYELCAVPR
CYP2E1, sequence (P05181 whole entry): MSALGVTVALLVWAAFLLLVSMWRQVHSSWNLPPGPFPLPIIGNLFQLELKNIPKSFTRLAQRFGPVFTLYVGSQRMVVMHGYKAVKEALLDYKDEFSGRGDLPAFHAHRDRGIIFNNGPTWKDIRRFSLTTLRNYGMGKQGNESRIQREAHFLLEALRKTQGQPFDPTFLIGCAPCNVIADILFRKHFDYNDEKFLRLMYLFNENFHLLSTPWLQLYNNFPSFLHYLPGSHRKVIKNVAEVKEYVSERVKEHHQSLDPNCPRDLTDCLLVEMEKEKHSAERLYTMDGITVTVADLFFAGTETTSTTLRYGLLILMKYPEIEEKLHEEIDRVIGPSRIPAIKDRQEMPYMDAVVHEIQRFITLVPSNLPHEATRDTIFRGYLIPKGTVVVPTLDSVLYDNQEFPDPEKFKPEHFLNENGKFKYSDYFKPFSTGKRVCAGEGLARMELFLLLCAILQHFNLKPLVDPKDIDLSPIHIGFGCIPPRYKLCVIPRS
CYP2C9, sequence (P11712 whole entry): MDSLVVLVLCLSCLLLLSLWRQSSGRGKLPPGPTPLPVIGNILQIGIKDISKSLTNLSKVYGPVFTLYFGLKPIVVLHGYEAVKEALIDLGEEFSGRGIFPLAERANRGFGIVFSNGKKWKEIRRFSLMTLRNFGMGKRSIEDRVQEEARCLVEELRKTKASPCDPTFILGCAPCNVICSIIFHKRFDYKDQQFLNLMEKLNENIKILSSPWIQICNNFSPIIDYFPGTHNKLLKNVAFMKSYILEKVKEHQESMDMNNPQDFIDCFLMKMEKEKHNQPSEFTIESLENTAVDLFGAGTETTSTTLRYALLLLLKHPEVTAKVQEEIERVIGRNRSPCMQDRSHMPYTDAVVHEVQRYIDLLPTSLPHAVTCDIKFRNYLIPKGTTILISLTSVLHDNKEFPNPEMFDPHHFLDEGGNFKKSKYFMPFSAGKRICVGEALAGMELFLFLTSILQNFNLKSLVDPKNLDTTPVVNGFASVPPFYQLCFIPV

SMILES: NCCO [Etn, monoethanolamine]
- IC50 (CYP2A6): > 100 µM
- glucose content in tumors versus control (PC-3-luc tumors): significantly reduced
- glutamine content in tumors versus control (PC-3-luc tumors): significantly reduced
- reduction of OCR compared to controls (PC-3 cells [1]): ~ 26%
- effect on cell survival (RWPE-1 cells): unaffected
- IC50 (CYP2B6): > 100 µM
- decrease in tumor volume (HCT116 xenograft; 40 mg/kg oral gavage): ~ 44%
- change in body weight over treatment course (HCT116 xenograft; 40 mg/kg oral, HCT116 tumor bearing mice): no apparent change in body weight
- IC50 (CYP2E1): > 100 µM
- reduction in tumor volume (DU145 xenografts; [15]): ~ 42%
- reduction in tumor weight (DU145 xenografts; [15]): ~ 29%
- change in body weight over treatment course (DU145 xenografts; 40 mg/kg oral, 4 weeks, DU145 tumor bearing mice): no apparent change in body weight
- stability in SGF [2]: stable
- IC50 (CYP2C9): > 100 µM
- HIF1-α protein expression in treated versus control tumors (HIF1-α): downregulation
- stability in SIF ([3]; SIF pH 6.8, over time (0-120 min), LC-MS/MS): remained unchanged
- Ki67-positive cells in treated tumors (Ki67): ~ 40%
- glucose content in cells versus control (PC-3 cells [4]): significantly reduced
- glutamine content in cells versus control (PC-3 cells [4]): significantly reduced
- decrease in colony numbers (PC-3 cells [5]): ~ 97%
- IC50 (CYP3A4): > 100 µM
- increase in p53 transcript levels compared to controls (p53 transcript): 1.2 fold
- IC50 (CYP1A2; read-out: IC50 CYP1A2): > 100 µM
- IC50, cell proliferation (CFPAC): 1900 µg/mL (≈ 31.1 mM)
- IC50 (CYP2D6): > 100 µM
- reduction of cell survival (PC-3 cells [6]; 0.5 mg/ml, PC-3, 48h): ~ 38%
- reduction in cell proliferation (PC-3 cells [6]; 1 mg/ml Etn alone, PC-3, 48h): ~ 33%
- half-maximal concentration (IC50), cell proliferation (PC-3 cells [6]; PC-3, MTT, 48h): ~ 0.88 mg/ml
- Cmax of Etn relative to Cmax of PhosE ([7]; after oral Etn 40 mg/kg): 32 fold
- Cmax ([7]; after oral Etn 40 mg/kg): 17370 ng/mL
- time to reach peak plasma concentration ([7]; after oral Etn 40 mg/kg): 10 min
- Cmax ([7]; after oral PhosE 60 mg/kg): 4320 ng/mL
- reduction in HIF1-α transcripts levels compared to control cells (HIF1-α transcripts): 50 fold
- IC50, cell proliferation (OVCAR-3): 290 µg/mL (≈ 4.75 mM)
- reduction in tumor volume (PC-3-luc xenografts; 40 mg/kg oral gavage, pH 5 (phosphoric acid), 4 weeks): ~ 67%
- reduction in tumor weight (PC-3-luc xenografts; [15]): ~ 55%
- change in body weight over treatment course (PC-3-luc xenografts; 40 mg/kg oral, 4 weeks, PC-3-luc tumor bearing mice): no apparent change in body weight
- change in intratumoral Etn levels versus control mice (PC-3-luc xenografts; [16]): did not observe any significant change
- intratumoral PhosE level, increase over control mice (PC-3-luc xenografts; [16]): ~ 38%
- decrease in cell viability (CK KD PC-3 cells): ~ 11%
- IC50 (CYP2C8): > 100 µM
- Annexin-V positive cells upon treatment (PC-3 cells [8]): ~ 25%
- IC50 (CYP2C19): > 100 µM
- reduction of cell survival [9]: 30–52%
- dependence of absorption on formulation pH or acid [10]: independent of pH
- IC50, cell proliferation (MDA-MB-468): 550 µg/mL (≈ 9 mM)
- acute toxicity (Acute oral toxicity; single oral dose 5 g/kg (limit dose), male and female rats, monitored one week): does not induce any acute toxicity
- survival after one week (Acute oral toxicity; single oral dose 5 g/kg, five male and five female rats): all rats were alive
- increase of intracellular PhosE levels relative to control cells (PC-3 cells [11]): ~ 40 fold

SMILES: NCCOP(=O)(O)O [PhosE, phosphoethanolamine]
- IC50 (CYP2A6): > 100 µM
- IC50 (CYP2B6): > 100 µM
- IC50 (CYP2E1): > 100 µM
- stability in SGF [2]: stable
- IC50 (CYP2C9): > 100 µM
- decrease in concentration in SIF ([3]; SIF pH 6.8, after 2h): ~ 35%
- partitioning into RBCs (blood to plasma concentration ratio) [12]: lack of preferential partitioning into RBCs
- effect on colony numbers compared to control cells (PC-3 cells [5]): ineffective
- IC50 (CYP3A4): > 100 µM
- IC50 (CYP1A2): > 100 µM
- inhibition of proliferation and colony formation [13]: ineffective
- IC50 (CYP2D6): > 100 µM
- Cmax ([7]; after oral Etn 40 mg/kg): 550 ng/mL
- time to reach peak plasma concentration ([7]; after oral Etn 40 mg/kg): 10 min
- Cmax ([7]; after oral PhosE 60 mg/kg): 1140 ng/mL
- oral bioavailability ([7]; oral Etn 40 mg/kg, PhosE 60 mg/kg vs intravenous 2 and 3 mg/kg): 19%
- IC50 (CYP2C8): > 100 µM
- volume of distribution (Vd) ([14]; intravenous PhosE 3 mg/kg): 4.82 L/kg
- clearance (CL) ([14]; intravenous, Etn 2 mg/kg, PhosE 3 mg/kg): 101.92 mL/min/kg
- IC50 (CYP2C19): > 100 µM
- increase of intracellular PhosE levels relative to control cells (PC-3 cells [11]): ~ 15 fold
